# Experimental data: PubChem BioAssay (NCI)
#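 Where inhibition never reached the appropriate level, the endpoint shown equals the highest concentration tested. Otherwise, values were interpolated linearly from a five-concentration, 48-hour dose response in 96-well plates. GI50 is the concentration that inhibits growth by half. Definition used: TGI = concentration required for complete inhibition of growth.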
# Tests used:
# Assay in all cases: NCI anticancer screen, dose series, 48 h
# ACHN renal = test system: ACHN renal
# EKVX NSCLC = test system: EKVX NSCLC
# HT29 colon = test system: HT29 colon
# OVCAR-3 ovarian = test system: OVCAR-3 ovarian
# OVCAR-4 ovarian = test system: OVCAR-4 ovarian
# OVCAR-5 ovarian = test system: OVCAR-5 ovarian
# UACC-62 melanoma = test system: UACC-62 melanoma
# HCT-116 colon = test system: HCT-116 colon
# SK-MEL-28 melanoma = test system: SK-MEL-28 melanoma
# SNB-19 CNS = test system: SNB-19 CNS
# U251 CNS = test system: U251 CNS
# HCT-15 colon = test system: HCT-15 colon
# M14 melanoma = test system: M14 melanoma
Compound,GI50 (ACHN renal) [µM],TGI (ACHN renal) [µM],GI50 (EKVX NSCLC) [µM],TGI (EKVX NSCLC) [µM],GI50 (HT29 colon) [µM],TGI (HT29 colon) [µM],GI50 (OVCAR-3 ovarian) [µM],TGI (OVCAR-3 ovarian) [µM],GI50 (OVCAR-4 ovarian) [µM],TGI (OVCAR-4 ovarian) [µM],GI50 (OVCAR-5 ovarian) [µM],TGI (OVCAR-5 ovarian) [µM],GI50 (UACC-62 melanoma) [µM],TGI (UACC-62 melanoma) [µM],TGI (HCT-116 colon) [µM],TGI (SK-MEL-28 melanoma) [µM],TGI (SNB-19 CNS) [µM],TGI (U251 CNS) [µM],TGI (HCT-15 colon) [µM],TGI (M14 melanoma) [µM]
Cc1ccc(C2CC(c3cccc(Nc4ccncc4)c3)=NN2c2ccccc2)cc1 (stereo not given),1.69,3.05,1.69,3.25,2.23,5.63,1.7,3.13,1.69,3.12,1.68,3.19,1.71,3.12,–,–,–,–,–,–
O=c1nc2sc3ccc4ccccc4c3n2[nH]c1=O,–,–,–,> 100,–,> 100,–,> 100,–,81.2,–,–,–,> 100,> 100,> 100,> 100,> 100,–,–
COc1cc2c(c(OC(C)=O)c1OC(C)=O)-c1ccc(SC)c(=O)cc1C(NC(C)=O)CC2 (stereo not given),–,> 100,–,> 100,–,> 44.8,–,2.43,–,> 100,–,> 100,–,> 100,17.5,> 100,> 100,> 32,> 100,> 69.1
CCOC(=O)NC(Nc1ccc(Cl)cn1)(C(F)(F)F)C(F)(F)F,–,> 100,–,> 100,–,> 100,–,> 100,–,–,–,> 100,–,> 100,> 100,> 100,> 100,> 100,> 100,> 100
CC1=CC(C)(C)Nc2ccc(CSc3ccccc3)cc21,–,> 100,–,59.9,–,38.2,–,39.5,–,46.1,–,40.4,–,> 100,91.9,> 100,> 100,> 100,> 100,65.2
N#CCCN(CCC#N)c1ccc(/C=C2\N=C(c3cc([N+](=O)[O-])ccc3Cl)N(NC(=O)CC(=O)Nc3ccccc3Cl)C2=O)cc1,–,> 100,–,> 100,–,–,–,> 100,–,> 100,–,66.5,–,> 100,> 100,> 100,> 100,> 100,> 100,> 100
CC(C)CN(CC#N)CC(C)C,–,> 100,–,> 100,–,> 100,–,> 100,–,> 100,–,> 100,–,> 100,> 100,> 100,> 100,> 100,> 100,> 100
CCCCCCCCCCCCCCCC(=O)OC1C(O)C(CO)OC(OC)C1NC(=O)N(CCCl)N=O (stereo not given),–,21.9,–,34.7,–,26.8,–,33.4,–,36.3,–,30.4,–,17.1,30,27.5,23.8,19.9,54.8,36.8
[O-][n+]1c(-c2ccccc2)c2nc3ccccc3nc2c2ccccc21,–,> 100,–,> 100,–,> 100,–,> 100,–,> 100,–,> 100,–,> 100,> 100,> 100,> 100,> 100,> 100,> 100
O=[As](O)(O)c1ccc2nc3cc([As](=O)(O)O)ccc3nc2c1,–,> 100,–,> 100,–,> 100,–,> 100,–,> 100,–,> 100,–,> 100,> 100,> 100,> 100,> 100,> 100,> 100
C[C@]12CC[C@@H]3c4ccc(OCCN5CCCC5)cc4CC[C@H]3[C@@H]1CCC2=O,–,> 100,–,67.6,–,> 100,–,68.8,–,> 100,–,97.4,–,69.8,–,> 100,> 100,> 100,29,29.4
CC(=O)N/C(=C\c1ccc(/C=C(\NC(C)=O)C2=NC3C(=O)c4ccccc4C(=O)C3N2)cc1)C1=NC2C(=O)c3ccccc3C(=O)C2N1 (stereo not given),–,> 100,–,> 100,–,> 100,–,> 100,–,> 100,–,> 100,–,> 100,> 100,> 100,> 100,> 100,> 100,> 100
CCN(CC)CCNc1ccc2nnn3c4ccccc4c(=O)c1c23,–,> 100,–,19.4,–,14.2,–,23.7,–,13.7,–,14.4,–,20.4,35.2,16,40.3,9.22,26.2,15.6
C[N+](C)([O-])Cc1cc(-c2ccccc2)ccc1O,–,> 100,–,> 100,–,> 100,–,> 100,–,> 100,–,> 100,–,> 100,> 100,> 100,> 100,> 100,> 100,> 100
CCCOC1OC(CS(=O)(=O)O)C(O)C(O)C1O (stereo not given),–,–,–,–,–,> 100,–,> 100,–,> 100,–,> 100,–,> 100,> 100,> 100,> 100,> 100,> 100,> 100
NC(N)=NC(N)=Nc1ccccc1 (tested in a mixture with another compound),–,> 100,–,> 100,–,> 100,–,> 100,–,> 100,–,> 100,–,> 100,> 100,> 100,> 100,> 100,> 100,> 100
